Experimental data published in US6410054B1, “Immediate release eplerenone compositions” (G. D. Searle & Co., priority 1998, dated 2002).

Legend:
[1] = Single dose study: plasma pharmacokinetics of eplerenone, open lactone ring form, spironolactone
Procedure: The pharmacokinetics, safety and antialdosterone activity of single 10, 50, 100, 300 and 1000 mg oral doses of eplerenone were evaluated in a single-center, randomized, double-blind, placebo-controlled study.
The study employed seven parallel dose groups of eight healthy male humans.
The eplerenone capsules administered corresponded to the capsules (or combinations of the capsules) disclosed in Examples 4, 5, 7 and 8 above. The placebo was a conventional capsule containing lactose. […] The fludrocortisone used in the study consisted of commercially available fludrocortisone tablets (Florinef®, Squibb BV).
(§1) The subjects, who underwent a ten hour food fast prior to administration of the dose, received a single oral dose of one of the study medications together with about 180 mL of water at 0800 hours. […] Each dose of fludrocortisone was administered with 150 mL of water except for the 1.0 mg dose which was administered with 200 mL of water.
(§2) The plasma samples collected from subjects dosed with eplerenone were assayed for concentrations of eplerenone and the open lactone ring form of eplerenone. […] A subset of plasma samples was also assayed for testosterone levels. The urine collected was analyzed to determine concentrations and amounts of eplerenone and the open lactone ring form of eplerenone, the amount of sodium and potassium excreted, and the urinary log10 (sodium/potassium) ratio.

aldosterone receptors [2] = target: T1, aldosterone receptors (Homo sapiens, UniProt P08235); experiment: Single dose study: antialdosterone activity, urinary sodium and potassium after fludrocortisone; assay type: in vivo, humans; conditions: 50 mg dose
T1 construct: endogenous in cells; host or cells: healthy male human subjects (in vivo)
T1 sequence (P08235 1-984): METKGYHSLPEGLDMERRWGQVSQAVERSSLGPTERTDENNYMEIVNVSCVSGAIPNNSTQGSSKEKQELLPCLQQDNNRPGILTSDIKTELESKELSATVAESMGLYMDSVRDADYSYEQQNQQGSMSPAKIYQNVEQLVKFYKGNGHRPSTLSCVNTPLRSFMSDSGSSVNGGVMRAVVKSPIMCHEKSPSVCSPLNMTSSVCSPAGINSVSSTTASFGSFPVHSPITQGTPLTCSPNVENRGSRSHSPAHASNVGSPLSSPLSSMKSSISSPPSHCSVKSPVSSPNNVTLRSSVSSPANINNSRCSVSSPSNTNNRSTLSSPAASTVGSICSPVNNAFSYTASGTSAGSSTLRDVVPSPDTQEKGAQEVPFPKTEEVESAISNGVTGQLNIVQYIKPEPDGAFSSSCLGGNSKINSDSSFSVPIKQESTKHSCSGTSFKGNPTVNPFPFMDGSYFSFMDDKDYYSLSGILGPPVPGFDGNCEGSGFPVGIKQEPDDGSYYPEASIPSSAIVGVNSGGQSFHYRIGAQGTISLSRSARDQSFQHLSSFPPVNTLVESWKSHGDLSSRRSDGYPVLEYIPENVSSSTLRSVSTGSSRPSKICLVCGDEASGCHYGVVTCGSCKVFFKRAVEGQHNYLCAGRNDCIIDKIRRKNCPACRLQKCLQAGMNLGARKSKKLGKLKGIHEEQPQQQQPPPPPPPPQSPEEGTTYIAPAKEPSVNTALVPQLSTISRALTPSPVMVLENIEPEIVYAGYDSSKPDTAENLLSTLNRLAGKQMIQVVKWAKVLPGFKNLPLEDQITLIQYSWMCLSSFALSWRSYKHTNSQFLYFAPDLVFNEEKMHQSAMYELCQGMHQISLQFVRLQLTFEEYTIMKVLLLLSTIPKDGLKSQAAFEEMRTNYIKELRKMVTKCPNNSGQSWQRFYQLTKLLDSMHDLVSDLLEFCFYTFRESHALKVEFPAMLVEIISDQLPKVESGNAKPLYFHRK
Procedure: Antialdosterone activity was determined based on urine levels of sodium and potassium following repeated administration of fludrocortisone. Safety was determined on the basis of laboratory tests, vital signs, and the occurrence and types of adverse events.
as §1, §2

aldosterone receptors [3] = target: T1, aldosterone receptors; experiment: Multiple dose study: antialdosterone activity, urinary log10 (sodium/potassium); assay type: in vivo, humans; conditions: multiple dose administration
Procedure: Multiple oral dose tolerability and the pharmacokinetics of several dosages of eplerenone were evaluated in a double-blind, randomized, placebo-controlled, rising oral dose, sequential panel study of 40 healthy male subjects (five groups of eight subjects). The study medication was administered in three sequential dose panels, with each panel including eplerenone, spironolactone and placebo. […] The 100 mg and 200 mg dose capsules corresponded to those described in Examples 7 and 8, respectively. […] Antialdosterone activity was determined following a fludrocortisone challenge on Days 12-13.

blood pressure = experiment: Treatment of hypertension study: blood pressure; assay type: in vivo, humans; conditions: 50 mg BID; eight weeks
Procedure: (§3) The safety and efficacy of a range of doses of eplerenone in the treatment of hypertension relative to placebo were evaluated in a multi-center, randomized, double-blind, placebo-lead-in, parallel group study. […] The primary efficacy variable was the change in cuff diastolic blood pressure (ADBP; sitting) measured at trough plasma levels after eight weeks of double blind treatment. The secondary variables measured were the change in trough cuff systolic blood pressure (ΔSBP; sitting), change in 24 hour mean diastolic blood pressure (ΔDBP), and change in 24 hour mean systolic blood pressure (ΔSBP). The primary and secondary efficacy variables were analyzed to compare BID versus QD dosing regimens for each eplerenone dose group, and both eplerenone and spironolactone versus placebo. Changes in plasma renin and serum aldosterone after eight weeks of dosing were also analyzed as secondary measures of efficacy.
The specific pharmaceutical compositions of each eplerenone capsule are reported in Examples 5, 6, 7 and 8. The placebo was a conventional capsule containing lactose.

renin and aldosterone = experiment: Treatment of hypertension study: plasma renin and serum aldosterone; assay type: in vivo, humans
Procedure: as §3, with “study. […] Four hundred and seventeen patients were randomized to one of eight treatments: (i) placebo BID; […] (iv) eplerenone 400 mg QD; (v) eplerenone 25 mg BID;” for “study.”, “The primary and secondary efficacy variables were analyzed to compare BID versus QD dosing regimens for each eplerenone dose group, and both eplerenone and spironolactone versus placebo.” left out

**Q.** Which results are given for CC(=O)S[C@@H]1CC2=CC(=O)CC[C@]2(C)[C@H]2CC[C@@]3(C)[C@@H](CC[C@@]34CCC(=O)O4)[C@H]12 [spironolactone, Spironolactone, reference compound]?
**A.** Plasma Concentration Of Spironolactone ([1]; 50 mg single oral dose, -0.25 h (predose)): 0 ng/mL; concentration at 0.5 h ([1]; male, human, plasma, po, 50 mg): 10.5 ng/mL; concentration at 1 h ([1]; male, human, plasma, po, 50 mg): 23.6 ng/mL; concentration at 2 h ([1]; male, human, plasma, po, 50 mg): 14.4 ng/mL; concentration at 3 h ([1]; male, human, plasma, po, 50 mg): 14.3 ng/mL; concentration at 4 h ([1]; male, human, plasma, po, 50 mg): 4.8 ng/mL; concentration at 6 h ([1]; male, human, plasma, po, 50 mg): 0 ng/mL; concentration at 8 h ([1]; male, human, plasma, po, 50 mg): 0 ng/mL; concentration at 12 h ([1]; male, human, plasma, po, 50 mg): 0 ng/mL; concentration at 16 h ([1]; male, human, plasma, po, 50 mg): 0 ng/mL; concentration at 24 h ([1]; male, human, plasma, po, 50 mg): 0 ng/mL; concentration at 28 h ([1]; male, human, plasma, po, 50 mg): 0 ng/mL; concentration at 32 h ([1]; male, human, plasma, po, 50 mg): 0 ng/mL; concentration at 48 h ([1]; male, human, plasma, po, 50 mg): 0 ng/mL; concentration at 72 h ([1]; male, human, plasma, po, 50 mg): 0 ng/mL; concentration at 96 h ([1]; male, human, plasma, po, 50 mg): 0 ng/mL; Urinary Potassium Excretion (aldosterone receptors [2]; 0 to 2 hours): 7.5 mmol; Urinary Sodium Excretion (aldosterone receptors [2]; 0 to 2 hours): 4.1 mmol; Urinary Potassium Excretion (aldosterone receptors [2]; 2 to 4 hours): 11.8 mmol; Urinary Sodium Excretion (aldosterone receptors [2]; 2 to 4 hours): 8.5 mmol; Urinary Potassium Excretion (aldosterone receptors [2]; 4 to 6 hours): 10.2 mmol; Urinary Sodium Excretion (aldosterone receptors [2]; 4 to 6 hours): 9.4 mmol; Urinary Potassium Excretion (aldosterone receptors [2]; 6 to 8 hours): 13.3 mmol; Urinary Sodium Excretion (aldosterone receptors [2]; 6 to 8 hours): 14.8 mmol; Urinary Potassium Excretion (aldosterone receptors [2]; 8 to 10 hours): 17.9 mmol; Urinary Sodium Excretion (aldosterone receptors [2]; 8 to 10 hours): 13.4 mmol; Urinary Potassium Excretion (aldosterone receptors [2]; 10 to 12 hours): 12.5 mmol; Urinary Sodium Excretion (aldosterone receptors [2]; 10 to 12 hours): 8.4 mmol; Urinary Potassium Excretion (aldosterone receptors [2]; 12 to 14 hours): 20.6 mmol; Urinary Sodium Excretion (aldosterone receptors [2]; 12 to 14 hours): 11.5 mmol; Urinary Potassium Excretion (aldosterone receptors [2]; 14 to 16 hours): 11.4 mmol; Urinary Sodium Excretion (aldosterone receptors [2]; 14 to 16 hours): 5.9 mmol; Urinary Potassium Excretion (aldosterone receptors [2]; 16 to 24 hours): 27.9 mmol; Urinary Sodium Excretion (aldosterone receptors [2]; 16 to 24 hours): 11.8 mmol; Urinary Potassium Excretion (aldosterone receptors [2]; −9 to 0 hours): 26.9 mmol; Urinary Sodium Excretion (aldosterone receptors [2]; −9 to 0 hours): 29.1 mmol; urinary log10 (sodium/potassium) values (aldosterone receptors [3]): no sustained increase; 24 hour mean ΔDBP (blood pressure): −8.9 mmHg; 24 hour mean ΔSBP (blood pressure): −15.7 mmHg; Primary Efficacy Variable: ΔDBP at trough (sitting) (blood pressure): −9.5 mmHg; ΔSBP at trough (sitting) (blood pressure): −17.6 mmHg; Plasma Renin Active Mean Change From Baseline (renin and aldosterone; 50 mg BID): 13.3 mU/L; Serum Aldosterone Mean Change From Baseline (renin and aldosterone; 50 mg BID): 19.2 ng/dL; aldosterone compared to placebo (renin and aldosterone; eight weeks of dosing): increases; total and active renin levels (renin and aldosterone; eight weeks of dosing): increases
